Laboratory results taken from ChEMBL document CHEMBL1201862, “PubChem BioAssay data set” (2004).
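Method: 48-hour compound exposure of cells in 96-well plates, five concentrations, linear interpolation of endpoints. GI50 = concentration required for 50% inhibition of growth.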 Calls of active or inactive are those of the source. No stated cut-off is given here; in the data, active = GI50 up to about 1.1 µM and inactive = higher.

How the values were obtained:
Test in all cases: NCI anticancer screen, dose series, 48 h
ACHN = tested on: ACHN
CCRF-CEM = tested on: CCRF-CEM
EKVX = tested on: EKVX
HT-29 = tested on: HT-29
IGROV-1 = tested on: IGROV-1
K562 = tested on: K562
LOX IMVI = tested on: LOX IMVI
MCF7 = tested on: MCF7
MDA-N = tested on: MDA-N
OVCAR-3 = tested on: OVCAR-3
OVCAR-5 = tested on: OVCAR-5
OVCAR-8 = tested on: OVCAR-8
SK-MEL-28 = tested on: SK-MEL-28
SK-OV-3 = tested on: SK-OV-3
SN12C = tested on: SN12C
SR = tested on: SR
SW-620 = tested on: SW-620
UACC-257 = tested on: UACC-257
UO-31 = tested on: UO-31
CAKI-1 = tested on: CAKI-1

Measured: GI50

O=C1c2cc3c(cc2CC1Cc1ccc2c(c1)CCC2)CCC3 (stereo not given)
inactive: ACHN 48.4 µM | CCRF-CEM 44.6 µM | EKVX > 100 µM | HT-29 40 µM | IGROV-1 31.6 µM | K562 69.5 µM | LOX IMVI 66.1 µM | MCF7 93.1 µM | MDA-N 51.4 µM | OVCAR-3 63.4 µM | OVCAR-5 > 100 µM | OVCAR-8 81.7 µM | SK-MEL-28 > 100 µM | SK-OV-3 85.1 µM | SN12C 41.4 µM | SR 29.9 µM | SW-620 45.5 µM | UACC-257 87.7 µM | UO-31 > 100 µM

COc1ccc([C@H]2c3cc4c(cc3OC(O)(CO)[C@H]2C(=O)O)OCO4)c(OC)c1.COc1ccc([C@H]2c3cc4c(cc3OC3(O)COC(=O)[C@@H]23)OCO4)c(OC)c1 (stereo not given in full)
inactive: ACHN > 100 µM | CCRF-CEM 37.3 µM | EKVX > 100 µM | HT-29 > 100 µM | IGROV-1 > 100 µM | K562 71.1 µM | LOX IMVI 95.5 µM | OVCAR-3 > 100 µM | OVCAR-5 > 100 µM | OVCAR-8 > 100 µM | SK-MEL-28 35.8 µM | SK-OV-3 > 100 µM | SN12C > 100 µM | SR 56 µM | SW-620 > 100 µM | UACC-257 > 100 µM | UO-31 > 100 µM

C=CCCC(On1c(-c2ccc(Cl)cc2)csc1=S)c1ccccc1 (stereo not given)
inactive: ACHN 83.6 µM | CAKI-1 > 100 µM | CCRF-CEM 12.4 µM | EKVX 19.9 µM | HT-29 7.59 µM | IGROV-1 20.2 µM | K562 9.51 µM | LOX IMVI 33.6 µM | MCF7 16.7 µM | MDA-N 3.36 µM | OVCAR-3 23 µM | OVCAR-5 > 100 µM | OVCAR-8 98.6 µM | SK-MEL-28 85.3 µM | SN12C 47.3 µM | SW-620 8.73 µM | UACC-257 33 µM | UO-31 42 µM

O=C(Nc1cccc([N+](=O)[O-])c1)C(=O)C(C(=O)c1ccccc1F)C1OC(=O)C2C=CC=CC21 (stereo not given)
inactive: ACHN 49.4 µM | CAKI-1 59.2 µM | CCRF-CEM 27.3 µM | EKVX 41 µM | HT-29 41.6 µM | IGROV-1 53.8 µM | K562 31.8 µM | LOX IMVI 21.1 µM | OVCAR-5 81.7 µM | OVCAR-8 30.3 µM | SK-MEL-28 30.3 µM | SK-OV-3 41.3 µM | SN12C 30.1 µM | SR 7.06 µM | SW-620 52.1 µM | UACC-257 82 µM | UO-31 44.1 µM

O=Nn1c2ccccc2c2cc([N+](=O)[O-])ccc21
inactive: ACHN 14.1 µM | CAKI-1 16.4 µM | CCRF-CEM 14.3 µM | EKVX 11.2 µM | HT-29 18 µM | IGROV-1 15.7 µM | K562 11.1 µM | LOX IMVI 14.7 µM | MCF7 22.9 µM | MDA-N 17.2 µM | OVCAR-3 17.9 µM | OVCAR-5 16.5 µM | OVCAR-8 14.6 µM | SK-MEL-28 18.5 µM | SK-OV-3 16.1 µM | SN12C 16.8 µM | SW-620 13.7 µM | UACC-257 22.9 µM | UO-31 22.4 µM

COc1ccc(/C(Cl)=C(\CN(C)C)c2ccc(OC)c(OC)c2)cc1OC
inactive: ACHN > 100 µM | CAKI-1 > 100 µM | CCRF-CEM > 100 µM | EKVX > 100 µM | HT-29 > 100 µM | IGROV-1 > 100 µM | K562 > 100 µM | LOX IMVI > 100 µM | OVCAR-3 > 100 µM | OVCAR-8 > 100 µM | SK-MEL-28 > 100 µM | SK-OV-3 > 100 µM | SN12C > 100 µM | SW-620 > 100 µM | UO-31 > 100 µM

CSc1nc(NC2OCC(OC(C)=O)C(OC(C)=O)C2OC(C)=O)c(/N=C(\C)C(C)=O)c(=O)[nH]1 (stereo not given)
inactive: ACHN > 100 µM | CAKI-1 > 100 µM | CCRF-CEM > 100 µM | EKVX > 100 µM | HT-29 > 100 µM | IGROV-1 > 100 µM | K562 > 100 µM | LOX IMVI > 100 µM | OVCAR-5 > 100 µM | OVCAR-8 > 100 µM | SK-MEL-28 > 100 µM | SN12C > 100 µM | SR > 100 µM | SW-620 > 100 µM | UACC-257 > 100 µM
